According to publication PMC7213079, “Hit Identification of New Potent PqsR Antagonists as Inhibitors of Quorum Sensing in Planktonic and Biofilm Grown Pseudomonas aeruginosa” (Frontiers in Chemistry, 2020):
“Also recorded” adds a separate entry of the source.

Experiments:
[1] = system: PAO1-L biofilm cultures; test: AQ quantification in biofilm cultures; type: cell-based, Pseudomonas aeruginosa; details: M9 minimal medium, 10 μM, 18 h, versus DMSO control
Text: Biofilms are a major challenge in the treatment of chronic P. aeruginosa infections because of their resilience and protection of bacteria from environmental stresses such as those posed by the host immune system and antimicrobial agents (Flemming et al., [2007]; Rybtke et al., [2015]). Many genes that are involved in biofilm formation are directly linked to pqs QS signaling (Rampioni et al., [2016]; Lin et al., [2018]). To evaluate the effect of 40 on AQ signaling in biofilm cultures, PAO1-L was grown in M9 minimal medium and challenged with either DMSO control or of 40 (10 μM). Following incubation and cell removal, supernatants were subjected to LC/MS-MS analysis.
Figure 6 Quantification of AQ concentrations in PAO1-L biofilm cultures treated with 40 (10 μM). […] Biofilms were grown in M9 minimal medium for 18 h in 24-well glass bottom plates and supernatants extracted for AQ analysis. […]
screening of the LC eluent for specific AQ analytes. Where chromatographic peaks for HHQ and PQS were detected, a peak area was determined and analyte peak area/internal standard peak area calculated.
AQ quantification in biofilm cultures: […]
For this experiment, the P. aeruginosa PAO1-L strain and M9 minimal medi um were used. […] The supernatant was col lected and the AQ extraction and quantification were performed following the LC MS/MS protocol described above . […]

[2] = system: PA14 mCTX::PpqsA-lux; test: PpqsA-lux bioreporter assay, strain PA14; type: cell-based, Pseudomonas aeruginosa; details: Pseudomonas aeruginosa, PA14, read-out: IC50 PA14
Text: To inform the structural variation of 7, crystal structures with the endogenous ligand [4-hydroxy-2-heptylquinoline (NHQ)] and the inhibitor M64 were used (Ilangovan et al., [2013]; Kitao et al., [2018]). The PqsR LBD is dominated by lipophilic interactions, therefore the current SAR exploration mainly focused on varying the aromatic tail substituents and examining the effect of 8-position substitution. The rationale for these modifications was primarily based on molecular docking studies that provided insights into the mode of binding of 7 and approaches intended to improve potency. The substituent at the para- position of the aromatic ring appeared to be crucial for biological activity due to the vital π-π stacking interaction of this group with Tyr^258. […] These strains emit light upon activation of PqsR by the endogenous production of these signal molecules. […] The results of the SAR in this assay highlight the importance of testing any prospective anti-virulence strategy on multiple genetically distinct P. aeruginosa strains as a means to reduce the chance of failure at both pre-clinical and clinical stages (Freschi et al., [2015]). […]
PA14 mCTX::PpqsA-lux PA14 with chromosomal mini-CTX::PpqsA-lux (Soukarieh insertion; TcR et al., 2018) […]
mini-CTX::PpqsA-lux R6K-based mini-CTX suicide plasmid for the (Diggle et chromosomal insertion of a PpqsA-lux al., 2007) transcriptional reporter fusion; TcR
Biosensor reporter assay:
Strains PA14 mCTX::PpqsA-lux and PAO1-L mCTX::PpqsA-lux were constructed using plasmid mini-CTX::PpqsA-lux as previously described (Diggle et al., 2007) and the assay was performed according to published procedures (Fletcher et al., 2007). For screening, the compounds were tested at 10 µM concentration which was prepared from 10 mM stock in DMSO. […]

Structure (SMILES): Cn1c2ccccc2c2nnc(SCC(=O)Nc3ccc(Oc4ccccn4)cc3)nc21 [Compound 40, 2-((5-Methyl-5H-[1,2,4]triazino[5,6-b]indol-3-yl)thio)-N-(4-(pyridin-2-yloxy)phenyl)acetamide]
- biosynthesis of AQ signals in biofilm cultures [1]: effectively inhibit; also recorded: drastically reduced
- IC50 [2]: 340 ± 30 nM
